The text below walks through data of patent US7547706B2, “1H-pyrimido[4,5-b]indole derivatives, their preparation and therapeutic use” (Sanofi-Aventis, priority 2005, dated 2009).

Marks after values point to notes of the source that are not given here.

Test [1] relates to motor neurons of the facial nucleus. Nature of the test: Survival of the motor neurons after sectioning the facial nerve in rats aged 4 days. It counts as in vivo, rat. Conditions: via oral route, at 10 mg/kg; treated for 7 days; facial nerve lesion in 4 day old rats. The method, then:
Test of Survival of the Motor Neurons after Sectioning the Facial Nerve in Rats Aged 4 Days
After lesion of the facial nerve in immature rats, the motor neurons of the facial nucleus underwent neuronal death by apoptosis. Neural survival was evaluated using histological methods and neuronal counting.
4 day old immature rats were anesthetized with pentobarbital (3 mg/kg by the i.p. route). The right facial nerve was exposed and sectioned, at its outlet from the stylomastoid foramen. After waking up, the young rats were returned to their mothers and treated for 7 days with one or two daily administrations, via oral or intraperitoneal route, at doses ranging from 1 to 10 mg/kg.
7 days after the lesion, the animals were decapitated and the brains frozen in isopentane at −40° C. The entire facial […] was cut with a cryostat into 10 μm sections. The motor neurons were colored with cresyl violet and counted using the Histo™ software (Biocom™).

In test [2] the target is T1, peripheral benzodiazepine receptors (p or PBR sites) (Rattus norvegicus, UniProt P16257).
T1 construct: After decapitation, the kidney was removed and the tissue was homogenized; from tissue; host or cells: kidney membrane homogenate of male Sprague Dawley rats
Nature of the test: Binding of [3H]Ro5-4864 to peripheral benzodiazepine receptors in rat kidney membranes. Conditions: [3H]Ro5-4864 0.5 nM, 3 h at 0° C., read-out: IC50, concentration which inhibits 50% of the specific binding of [3H]Ro5-4864.

For `CN(C)C(=O)c1nc(-c2ccncc2)nc2c1c1ccc(Cl)cc1n2C` [Compound 15, 7-chloro-N,N,9-trimethyl-2-pyridin-4-yl-9H-pyrimido[4,5-b]indole-4-carboxamide], in test [1], the “% increase of neuronal survival” value is on record as “+40* %”. For the same molecule, the IC50 in test [2] came to 3.1 nM.
